{
  "source": "ChEMBL document CHEMBL5727767",
  "about": "“1,2-substituted cyclopentanes as orexin receptor antagonists” (2020)",
  "key": {"[1]": {"biological_target": "T1, Orexin/Hypocretin receptor type 1 (Homo sapiens, UniProt O43613)", "T1 sequence (O43613 whole entry)": "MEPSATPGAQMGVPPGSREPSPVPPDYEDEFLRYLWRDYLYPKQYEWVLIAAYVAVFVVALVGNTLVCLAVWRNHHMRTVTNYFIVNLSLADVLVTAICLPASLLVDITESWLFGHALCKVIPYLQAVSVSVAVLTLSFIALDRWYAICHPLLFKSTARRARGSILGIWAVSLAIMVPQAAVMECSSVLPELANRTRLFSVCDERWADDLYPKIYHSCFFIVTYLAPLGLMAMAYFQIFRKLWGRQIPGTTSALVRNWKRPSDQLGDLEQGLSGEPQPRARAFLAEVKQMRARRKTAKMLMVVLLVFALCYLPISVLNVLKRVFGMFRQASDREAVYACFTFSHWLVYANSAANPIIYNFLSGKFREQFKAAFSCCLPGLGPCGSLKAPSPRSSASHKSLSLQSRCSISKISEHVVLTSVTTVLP", "format": "cell-based"}, "[2]": {"biological_target": "T2, Orexin receptor type 2 (Homo sapiens, UniProt O43614)", "T2 sequence (O43614 whole entry)": "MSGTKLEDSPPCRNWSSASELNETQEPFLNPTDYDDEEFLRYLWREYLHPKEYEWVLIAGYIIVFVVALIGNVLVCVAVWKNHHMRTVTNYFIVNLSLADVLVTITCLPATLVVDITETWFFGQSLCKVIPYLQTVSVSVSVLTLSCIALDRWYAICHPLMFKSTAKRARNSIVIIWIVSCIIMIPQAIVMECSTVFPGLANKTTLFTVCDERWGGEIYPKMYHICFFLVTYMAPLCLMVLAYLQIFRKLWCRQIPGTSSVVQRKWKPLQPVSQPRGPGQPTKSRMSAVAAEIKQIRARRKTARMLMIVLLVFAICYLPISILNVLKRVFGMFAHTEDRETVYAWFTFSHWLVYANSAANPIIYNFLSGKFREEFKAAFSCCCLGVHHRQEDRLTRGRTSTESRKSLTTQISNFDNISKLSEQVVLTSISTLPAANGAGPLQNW", "format": "cell-based"}},
  "data": [
    {"molecule": "Cc1ccc(-n2nccn2)c(C(=O)N[C@@H]2CCC[C@@H]2Nc2ccc(Cl)cn2)c1", "values": [
      {"measurement": "IC50", "setting": "[1]", "value": 270, "unit": "nM"},
      {"measurement": "IC50", "setting": "[2]", "value": "> 10000", "unit": "nM"}
    ]}
  ]
}
